For series [1], the target named is T1, Amylin receptor AMY3; CALCR/RAMP3 (Homo sapiens, UniProt O60896+P30988).
T1 sequence (P30988 whole entry): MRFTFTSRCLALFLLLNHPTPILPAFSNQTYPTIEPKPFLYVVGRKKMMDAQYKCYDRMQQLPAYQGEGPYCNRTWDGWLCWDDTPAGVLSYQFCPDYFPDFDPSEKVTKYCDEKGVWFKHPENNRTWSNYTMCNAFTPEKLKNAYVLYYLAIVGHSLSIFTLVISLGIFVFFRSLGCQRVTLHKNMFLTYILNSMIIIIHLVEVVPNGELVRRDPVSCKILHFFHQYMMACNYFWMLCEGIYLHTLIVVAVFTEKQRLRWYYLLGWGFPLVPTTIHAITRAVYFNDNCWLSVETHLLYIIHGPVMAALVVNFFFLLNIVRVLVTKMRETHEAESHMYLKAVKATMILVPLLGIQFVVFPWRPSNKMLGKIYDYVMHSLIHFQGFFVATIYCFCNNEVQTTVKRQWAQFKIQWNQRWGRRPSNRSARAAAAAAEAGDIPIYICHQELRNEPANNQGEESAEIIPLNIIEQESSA
T1 sequence (O60896 whole entry): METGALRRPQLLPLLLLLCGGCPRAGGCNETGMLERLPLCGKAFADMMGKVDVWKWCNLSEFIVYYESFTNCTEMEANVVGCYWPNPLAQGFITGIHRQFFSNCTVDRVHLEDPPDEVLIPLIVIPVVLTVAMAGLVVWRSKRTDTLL
The series can be described thus: Displacement of [125I]-labeled rat amylin from human amylin receptor expressed in BHK570 cell membranes co-expressing RAMP3 incubated for 120 mins by scintillation proximity assay. (Displacement assays read how much labelled ligand stays bound in the presence of the test substance.)

Series [2] can be described thus: Solubility in 100 mM bistrispropane buffer at pH 6.0 incubated for 18 hrs by UPLC analysis. Type of series: physicochemical.
Series [3] has as its system Rattus norvegicus. The series can be described thus: Reduction in food intake in Sprague-Dawley rat at 3 nmol/kg measured 24 to 48 hrs post dose relative to control. On the set-up: scale not given: the % may be the effect or the level left. Type of series: functional.
Series [4] can be described thus: Solubility in 100 mM glycylglycine buffer at pH 3.0 incubated for 18 hrs by UPLC analysis. Type of series: physicochemical.
Series [5] addresses T2, Calcitonin receptor (Homo sapiens, UniProt P30988).
T2 sequence (P30988 whole entry): T1 sequence (P30988 whole entry)
Nature of the series: Agonist activity at human calcitonin receptor expressed in BHK570 cells assessed as increase in intracellular cAMP concentration incubated for 3 hrs in presence of 10% FBS by CRE luciferase reporter gene assay. Type of series: functional, cell-based.

The nature of series [6]: Solubility in 100 mM bistrispropane buffer at pH 7.0 incubated for 18 hrs by UPLC analysis. Type of series: physicochemical.
Series [7] addresses T3, Amylin receptor AMY3; CALCR/RAMP3 (Rattus norvegicus, UniProt P32214+Q9JJ73).
T3 sequence (P32214 whole entry): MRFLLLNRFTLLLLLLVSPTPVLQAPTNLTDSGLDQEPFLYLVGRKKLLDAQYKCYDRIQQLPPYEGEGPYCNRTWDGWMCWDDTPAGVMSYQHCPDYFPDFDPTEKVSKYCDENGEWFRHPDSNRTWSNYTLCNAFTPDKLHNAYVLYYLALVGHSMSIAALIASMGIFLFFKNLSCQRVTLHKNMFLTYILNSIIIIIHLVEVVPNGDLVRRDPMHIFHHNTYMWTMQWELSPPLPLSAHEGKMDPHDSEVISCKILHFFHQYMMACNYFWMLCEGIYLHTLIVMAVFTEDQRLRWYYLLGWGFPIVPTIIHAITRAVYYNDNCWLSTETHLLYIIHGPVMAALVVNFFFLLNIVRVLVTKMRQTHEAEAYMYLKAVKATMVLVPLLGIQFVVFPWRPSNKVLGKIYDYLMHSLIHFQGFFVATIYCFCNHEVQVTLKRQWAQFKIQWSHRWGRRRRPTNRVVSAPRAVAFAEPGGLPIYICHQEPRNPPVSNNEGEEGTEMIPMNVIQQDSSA
T3 sequence (Q9JJ73 whole entry): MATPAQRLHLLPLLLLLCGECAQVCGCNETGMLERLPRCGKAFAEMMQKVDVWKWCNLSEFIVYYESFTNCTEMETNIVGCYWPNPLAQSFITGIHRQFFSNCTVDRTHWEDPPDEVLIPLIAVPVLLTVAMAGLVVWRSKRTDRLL
The series can be described thus: Displacement of [125I]-labeled rat amylin from rat amylin receptor expressed in BHK tkts13 cell membranes co-expressing RAMP3 incubated for 120 mins by scintillation proximity assay.

A short description of series [8]: Solubility in 100 mM bistrispropane buffer at pH 6.5 incubated for 18 hrs by UPLC analysis. In kind it is physicochemical.
For series [9], the system named is Rattus norvegicus. Nature of the series: Reduction in food intake in Sprague-Dawley rat at 3 nmol/kg measured 0 to 24 hrs post dose relative to control. Further details: scale not given: the % may be the effect or the level left. In kind it is functional.
Series [10] can be described thus: Solubility in 100 mM glycylglycine buffer at pH 5.0 incubated for 18 hrs by UPLC analysis. Type of series: physicochemical.
Series [11] in a line: Solubility in 100 mM bistrispropane buffer at pH 8.0 incubated for 18 hrs by UPLC analysis. Type of series: physicochemical.
The target in series [12] is T1, Amylin receptor AMY3; CALCR/RAMP3. The series can be described thus: Agonist activity at human amylin receptor expressed in BHK570 cells co-expressing RAMP3 assessed as increase in intracellular cAMP concentration incubated for 3 hrs in presence of 10% FBS by CRE luciferase reporter gene assay. Type of series: functional, cell-based. (Reporter assays use an easily measured gene product as a stand-in for the process of interest.)

The target is the same in series [13]. Nature of the series: Agonist activity at human amylin receptor expressed in BHK570 cells co-expressing RAMP3 assessed as increase in intracellular cAMP concentration incubated for 3 hrs in absence of albumin by CRE luciferase reporter gene assay. Type of series: functional, cell-based.
The nature of series [14]: Solubility in 100 mM bistrispropane buffer at pH 7.5 incubated for 18 hrs by UPLC analysis. Type of series: physicochemical.
Series [15] can be described thus: Solubility in 100 mM glycylglycine buffer at pH 4.0 incubated for 18 hrs by UPLC analysis. In kind it is physicochemical.
The nature of series [16]: Stability in pH 7.5 buffer assessed as compound recovery at 1 uM by Thioflavin T based fluorescence assay. The following applies: read-out: Drug recovery. In kind it is physicochemical.
The target of series [17] is T2, Calcitonin receptor. The series can be described thus: Agonist activity at human calcitonin receptor expressed in BHK570 cells assessed as increase in intracellular cAMP concentration incubated for 3 hrs in absence of albumin by CRE luciferase reporter gene assay. In kind it is functional, cell-based.
Series [18] in a line: Stability in pH 7.5 buffer assessed as lag time for fibril formation at 1 uM by Thioflavin T based fluorescence assay. The following applies: pH 7.5, 1 µM. In kind it is physicochemical.
Series [19] addresses T2, Calcitonin receptor. The series can be described thus: Displacement of [125I]-labeled human calcitonin from human calcitonin receptor expressed in BHK tkts13 cell membranes incubated for 1 hr by scintillation proximity assay.

SMILES strings stand for the structures. pEC50, pIC50: −log10 of the molar value. Numbered stars: 1 amine (or outer) side, 2 acyl side, 3 side chain; on linkers, the order of the positions; unused ones are H or OH. Peptide text beside a SMILES is read from it. * marks the point of attachment. C20 diacid = O=C(O)CCCCCCCCCCCCCCCCCCC(=O)*; C16 diacid = O=C(O)CCCCCCCCCCCCCCC(=O)*; γGlu = O=C(O)[C@H](CCC(=O)[*:2])N[*:1]; AEEA = NCCOCCOCC(=O)O

With `CC(C)C[C@H](NC(=O)[C@H](C)NC(=O)[C@H](C)NC(=O)[C@@H](NC(=O)[C@H](CO)NC(=O)[C@H](CC(C)C)NC(=O)[C@H](CCC(=O)O)NC(=O)[C@H](CO)NC(=O)[C@H](C)NC(=O)CCCCCCCCCCCCCCC(=O)O)[C@@H](C)O)C(=O)NCC(=O)N[C@@H](CCCNC(=N)N)C(=O)N[C@@H](CC(C)C)C(=O)N[C@@H](CO)C(=O)N[C@@H](C)C(=O)N[C@@H](CCC(=O)O)C(=O)N[C@@H](CC(C)C)C(=O)N[C@@H](Cc1cnc[nH]1)C(=O)N[C@@H](CCC(=O)O)C(=O)N[C@@H](CC(C)C)C(=O)N[C@@H](C)C(=O)N[C@H](C(=O)N[C@@H](CC(C)C)C(=O)N1CCC[C@H]1C(=O)N[C@@H](CCCNC(=N)N)C(=O)N[C@H](C(=O)N[C@@H](CCC(=O)O)C(=O)N[C@H](C(=O)NCC(=O)N[C@@H](CO)C(=O)NCC(=O)N[C@@H](CO)C(=O)N1CCC[C@H]1C(N)=O)[C@@H](C)O)[C@@H](C)O)[C@@H](C)O` ({C16 diacid}-ASELSTAALGRLSAELHELATLPRTETGSGSP-NH2), the pIC50 in [1] is 10.82; in [7], 10.19. Further, the solubility at 18 h in series [2], in [4], in series [6], in series [8], in series [10] and in series [11] was at least 200 µM each time. For the same molecule, the solubility at 18 h in series [14] and in [15] was at least 200 µM throughout. Further, the Activity is reported as -2% with Rattus norvegicus [3] and 28% in the series with Rattus norvegicus [9]. Further, the figures for the pEC50 (at Calcitonin receptor [5]; in [12]; in series [13]) were 11.52, 11.40 and 11.00, respectively.

On to `CC(C)C[C@H](NC(=O)[C@H](C)NC(=O)[C@H](C)NC(=O)[C@@H](NC(=O)[C@H](CO)NC(=O)[C@H](CC(C)C)NC(=O)[C@H](CCC(=O)O)NC(=O)[C@H](CO)NC(=O)[C@H](C)NC(=O)COCCOCCNC(=O)CC[C@H](NC(=O)CCCCCCCCCCCCCCCCCCC(=O)O)C(=O)O)[C@@H](C)O)C(=O)NCC(=O)N[C@@H](CCCNC(=N)N)C(=O)N[C@@H](CC(C)C)C(=O)N[C@@H](CO)C(=O)N[C@@H](C)C(=O)N[C@@H](CCC(=O)O)C(=O)N[C@@H](CC(C)C)C(=O)N[C@@H](Cc1cnc[nH]1)C(=O)N[C@@H](CCC(=O)O)C(=O)N[C@@H](CC(C)C)C(=O)N[C@@H](C)C(=O)N[C@H](C(=O)N[C@@H](CC(C)C)C(=O)N1CCC[C@H]1C(=O)N[C@@H](CCCNC(=N)N)C(=O)N[C@H](C(=O)N[C@@H](CCC(=O)O)C(=O)N[C@H](C(=O)NCC(=O)N[C@@H](CO)C(=O)NCC(=O)N[C@@H](CO)C(=O)N1CCC[C@H]1C(N)=O)[C@@H](C)O)[C@@H](C)O)[C@@H](C)O` ({C20 diacid-γGlu-AEEA}-ASELSTAALGRLSAELHELATLPRTETGSGSP-NH2), for which the remaining at 1 µM in series [16] was found to be 100%. Also, the solubility at 18 h in series [2], in [4], in series [6], in [8], in series [10] and in series [11] was at least 200 µM each time. Also, the solubility at 18 h in series [14] and in series [15] was at least 200 µM in each case. The pEC50 on Calcitonin receptor [5] is 10.52; at Calcitonin receptor [17], 10.74; in series [12], 10.14; in series [13] it was 10.57. Also, the negative logarithm of the IC50 (pIC50) in series [7] was 9.84; on Calcitonin receptor [19], 10.07. For the same molecule, the Time in series [18] is above 45 h.

Take `CC(C)C[C@H](NC(=O)[C@H](CCCNC(=N)N)NC(=O)CNC(=O)[C@H](CC(C)C)NC(=O)[C@@H](NC(=O)[C@H](C)NC(=O)[C@@H](NC(=O)[C@H](CO)NC(=O)[C@H](CC(C)C)NC(=O)[C@H](CCC(=O)O)NC(=O)[C@H](CO)NC(=O)[C@H](C)NC(=O)CC[C@H](NC(=O)CCCCCCCCCCCCCCCCCCC(=O)O)C(=O)O)[C@@H](C)O)[C@@H](C)O)C(=O)N[C@@H](CO)C(=O)N[C@@H](C)C(=O)N[C@@H](CCC(=O)O)C(=O)N[C@@H](CC(C)C)C(=O)N[C@@H](Cc1cnc[nH]1)C(=O)N[C@@H](CCC(=O)O)C(=O)N[C@@H](CC(C)C)C(=O)N[C@@H](CO)C(=O)N[C@H](C(=O)N[C@@H](Cc1ccc(O)cc1)C(=O)N1CCC[C@H]1C(=O)N[C@@H](CCCNC(=N)N)C(=O)N[C@H](C(=O)N[C@@H](CCC(=O)O)C(=O)N[C@H](C(=O)NCC(=O)N[C@@H](CO)C(=O)NCC(=O)N[C@@H](CO)C(=O)N[C@@H](Cc1ccc(O)cc1)C(N)=O)[C@@H](C)O)[C@@H](C)O)[C@@H](C)O` ({C20 diacid-γGlu}-ASELSTATLGRLSAELHELSTYPRTETGSGSY-NH2): the pIC50 in [1] was 9.80; in series [7], 10.35. Further, the solubility at 18 h in series [2], in series [4], in series [6], in series [8], in series [11] and in series [14] was at least 200 µM in each case. For the same molecule, the solubility at 18 h in series [15] is at least 200 µM. For the same molecule, the Activity is 68% with Rattus norvegicus [3] and 46% in the series on Rattus norvegicus [9]. Further, the pEC50 on Calcitonin receptor [5] was 10.40; on Calcitonin receptor [17], 10.64; in series [12], 10.04; in series [13], 10.70.

In general, pIC50 refers to the negative decadic logarithm of the IC50, by convention in mol/L. A word on the solubility: it is how much of the substance goes into solution per volume. Broadly, the pEC50 is −log10 of the EC50, conventionally taken in molar units.

The record behind these values is ChEMBL document CHEMBL4420076, “Amylin and calcitonin receptor agonist” (2017).
